One block for each compound: values may come before it.
Key:
[1] = test system: A375 melanoma cells; assay: MTT cell viability assay, A375; conditions: Homo sapiens;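 also: Read-out is formazan absorbance at 570 nm after 2 h with MTT, with compounds in at most 0.1% v/v DMSO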
Protocol: (§1) The MTT colorimetric assay was performed as a preliminary evaluation of the cytotoxicity of the selected flavonoids according to the method described and validated by Strawa et al. [21]. Briefly, melanoma cells and fibroblasts were seeded in 96-well microplates at a density of 1 × 10^4 cells per well. Fibroblasts were used as a control cell line in order to assess the selectivity of the compounds. […] Subsequently, the cells were washed with PBS, incubated with MTT solution for 2 h, and lysed with dimethyl sulfoxide (DMSO) supplemented with 1% (v/v) Sorensen’s glycine buffer. The absorbance was measured using a microplate reader (EPOCH 2, BioTek, Winooski, VT, USA) at a wavelength of 570 nm. The compounds were used at a final DMSO concentration of no more than 0.1% (v/v) in each well. The results were generated from at least three independent experiments. […] The IC50 values were calculated with GraphPad Prism 9 software (GraphPad Software, San Diego, CA, USA).

[2] = in vitro; conditions: human
Protocol: as §1

[3] = test system: A375 melanoma cells; assay: Neutral red uptake (NRU) assay, A375; conditions: read-out: IC50, cytotoxic activity, NRU assay
[4] = Neutral red uptake (NRU) assay, normal cells; conditions: human
Protocol: (§2) The NRU (neutral red uptake) was conducted as previously described by Szoka and co-workers, with some modifications [22]. Briefly, melanoma cells and fibroblasts were seeded in microplates at the density of 1 × 10^4 cells per well and allowed to adhere for 24 h. […] After treatment, the culture medium was replaced with a neutral red solution (40 µg/mL). An additional 2 h of incubation was performed. The neutral red solution was then removed and the neutral red accumulated in the cells was dissolved in 50% EtOH with 1% of the glacial acetic acid. The absorbance was estimated at 540 nm and IC50 values were calculated using GraphPad Prism software (GraphPad Software, San Diego, CA, USA).

[5] = test system: C32 melanoma cells; assay: MTT cell viability assay, C32; conditions: Homo sapiens, read-out: IC50, cytotoxic activity, MTT test;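 also: MTT added for 2 h, cells lysed in DMSO, absorbance read at 570 nm, compound vehicle kept at or below 0.1% DMSO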
[6] = test system: C32 melanoma cells; assay: Neutral red uptake (NRU) assay, C32
[7] = test system: C32 melanoma cells; assay: [3H]-thymidine incorporation (DNA biosynthesis), C32; type: cell-based, human; conditions: read-out: IC50, effect on DNA biosynthesis ([3H]-thymidine incorporation)
Protocol: (§3) The inhibition of DNA biosynthesis was evaluated using [^3H]-thymidine incorporation into the DNA of melanoma cells (C32, A375) and fibroblasts treated with the studied compounds [21]. The cells were briefly seeded in 24-well plates (1 × 10^5 cells per well) and allowed to adhere for 24 h. […] After incubation for 24, 48, and 72 h, the cells were rinsed three times with PBS. Then, cells were lysed in 1 mL of 0.1 M NaOH containing 1% SDS. The cell lysate was moved into scintillation vials containing scintillation liquid, and the radioactivity of the samples was measured using a liquid scintillation analyzer (Perkin-Elmer, Waltham, MA, USA).

[8] = test system: human skin fibroblasts (CCD25Sk); assay: [3H]-thymidine incorporation (DNA biosynthesis), normal cells; type: cell-based; conditions: read-out: IC50, effect on DNA biosynthesis ([3H]-thymidine incorporation)
Protocol: as §3

[9] = test system: human skin fibroblasts (CCD25Sk); assay: Neutral red uptake (NRU) assay, normal cells; conditions: read-out: IC50, cytotoxic activity, NRU assay; Normal cells (fibroblasts), 48 h
Protocol: as §2

[10] = test system: caspases, PARP, phospho-RSK in C32 cells; assay: Western immunoblot of apoptosis mediators and RSK, C32; type: cell-based, human; conditions: C32, 48 h, Western blot
Protocol: (§4) Floating cells were harvested by centrifugation of the conditioned media (300× g, 5 min). Cell pellet and adherent cells were lysed in a cell lysis buffer supplemented with inhibitors of proteases and phosphatases. The cell lysate was sonicated (2 × 10 s) on ice with an ultrasonic homogenizer (UP200S, Hielscher Ultrasonics GmbH, Teltow, Germany) and centrifuged for 10 min at 10,000× g. The supernatant was collected and stored in a freezer at −70 °C. Protein concentrations in the cell supernatants were determined using a Lowry assay. Obtained proteins were dissolved on SDS-PAGE gels (7.5%, 10%, or 12%) using the Mini-Protean Tetra system. The proteins were transferred to nitrocellulose membranes using the Mini Trans-Blot Cell wet blotting system. The 5% skim milk was used to block membranes. Then, membranes were probed for 24 h at 4 °C with the following antibodies: anti-phospho-RSK, anti-RSK, anti-PARP, anti-cleaved PARP, anti-caspase-8, anti-caspase-9, anti-caspase-7, anti-caspase-3, and anti-actin. Membranes were incubated with an ECL-HRP (enhanced chemiluminescence-horseradish peroxidase) substrate, and the signal was spotted using the BioSpectrum Imaging System and VisionWorks LS software 7.0 (Ultra-Violet Products, Ltd., San Gabriel, CA, USA). The intensity of the bands was quantified by densitometric analysis using UVIBand software, version 15.08d (Uvitec Ltd., Cambridge, UK).

[11] = test system: A375 melanoma cells; assay: [3H]-thymidine incorporation (DNA biosynthesis), A375; type: cell-based, human; conditions: read-out: IC50, effect on DNA biosynthesis ([3H]-thymidine incorporation)
[12] = test system: caspases, PARP, phospho-RSK in A375 cells; assay: Western immunoblot of apoptosis mediators and RSK, A375; type: cell-based, human; conditions: A375, 48 h, Western blot
Protocol: as §4

[13] = MTT cell viability assay, normal cells; conditions: human;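 also: fibroblasts served as non-cancer comparison line for selectivity versus melanoma cells, MTT reduction read as absorbance at 570 nm after 2 h dye exposure, compounds in ≤0.1% DMSO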
Protocol: as §1

[14] = test system: A375 melanoma cells; assay: Apoptosis assay, annexin V/PI flow cytometry, A375; type: cell-based, human; conditions: A375, 50 µM, 48 h
Protocol: Firstly, cells were placed in 6-well plates at a density of 1 × 10^5 cells per well and allowed to adhere for 24 h. Then, cells were treated with 25 µM, 50 µM, and 100 μM of the selected flavonoids (1, 6, 15, 16, 17, 37) and incubated for 48 h. Floating and adherent cells were collected and assayed using the manufacturer’s protocol supported by the Dead Cell Apoptosis Kit for flow cytometry. Concisely, 100 μL of an annexin-binding buffer containing a 5 μL annexin V-FITC conjugate solution and 1 μg/mL PI (propidium iodide) was used to disperse the cells. After 15 min of incubation, an additional 400 μL of the mentioned buffer was added. The cells were analyzed with a DxFLEX flow cytometer (Beckman Coulter, Brea, CA, USA).

[15] = test system: cleaved caspase-3 and cleaved caspase-7 in C32 cells; assay: Immunofluorescence of cleaved caspase-3/-7, C32; type: cell-based, human; conditions: C32, 48 h, immunofluorescent staining
Protocol: Firstly, to examine fluorescent signals, cells were placed in the bottom of 96-well black plates at 1 × 10^4 cells per well and permitted to adhere for 24 h. […] After incubating and removing the medium, cells were fixed in 4% paraformaldehyde for 15 min. Later, cells were rinsed three times with PBS and permeabilized with 0.1% Triton X-100 for 5 min at room temperature. The 10% heat-inactivated goat serum in the PBS was used to block non-specific binding. Subsequently, cells were treated with the following antibodies overnight: anti-cleaved caspase 3 and anti-cleaved caspase-7. […] Cell nuclei were stained with Hoechst 33342 and F-actin was stained with Phalloidin-Atto 488. Fluorescent signals were captured using a BD Pathway 855 confocal microscope (Becton Dickinson, Franklin Lakes, NJ, USA). The mean fluorescence intensity was calculated using ImageJ software (National Institutes of Health, Bethesda, Rockville, MD, USA).

[16] = A-375, 24 h, read-out: IC50, cytotoxic activity, MTT test, A375, 24 h
[17] = A-375, 48 h, read-out: IC50, cytotoxic activity, MTT test, A375, 48 h
[18] = A-375, 72 h, read-out: IC50, cytotoxic activity, MTT test, A375, 72 h
[19] = human skin fibroblasts (CCD25Sk)
[20] = Homo sapiens, C32, 24 h, read-out: IC50, cytotoxic activity, NRU assay, C32, 24 h
[21] = Homo sapiens, C32, 48 h, read-out: IC50, cytotoxic activity, NRU assay, C32, 48 h
[22] = Homo sapiens, C32, 72 h, read-out: IC50, cytotoxic activity, NRU assay, C32, 72 h

IC50 at 24 h [2]: > 200 µM
IC50 at 48 h [2]: > 200 µM
IC50 at 72 h [2]: > 200 µM
IC50 at 24 h [4, 19]: > 200 µM
IC50 at 48 h [4, 19]: > 200 µM
IC50 at 72 h [4, 19]: > 200 µM
SMILES: O=c1c(O)c(-c2cc(O)c(O)c(O)c2)oc2cc(O)cc(O)c12 [Compound 30, myricetin]
IC50 [1, 16]: > 200 µM
IC50 [1, 17]: > 200 µM
IC50 [1, 18]: 75.3 ± 4.8 µM
IC50 ([3]; Homo sapiens, A-375, 24 h): > 200 µM
IC50 ([3]; Homo sapiens, A-375, 48 h): > 200 µM
IC50 ([3]; Homo sapiens, A-375, 72 h): > 200 µM
IC50 ([5]; C32, 24 h): > 200 µM
IC50 ([5]; C32, 48 h): > 200 µM
IC50 ([5]; C32, 72 h): > 200 µM
IC50 [6, 20]: > 200 µM
IC50 [6, 21]: > 200 µM
IC50 [6, 22]: > 200 µM

IC50 at 24 h [2]: > 200 µM
IC50 at 48 h [2]: > 200 µM
IC50 at 72 h [2]: > 200 µM
IC50 at 24 h [4, 19]: > 200 µM
IC50 at 48 h [4, 19]: 100 to 200 µM
IC50 at 72 h [4, 19]: 100 to 200 µM
SMILES: O=c1cc(-c2ccc(O)c(O)c2)oc2cc(OC3OC(CO)C(O)C(O)C3O)cc(O)c12 (centres unmarked) [Compound 7, luteolin 7-O-glucoside]
IC50 [1, 16]: > 200 µM
IC50 [1, 17]: > 200 µM
IC50 [1, 18]: 37.1 ± 3 µM
IC50 ([3]; Homo sapiens, A-375, 24 h): > 200 µM
IC50 ([3]; Homo sapiens, A-375, 48 h): 56.7 ± 3.8 µM
IC50 ([3]; Homo sapiens, A-375, 72 h): 41.5 ± 3.3 µM
IC50 ([5]; C32, 24 h): > 200 µM
IC50 ([5]; C32, 48 h): 60.5 ± 4.6 µM
IC50 ([5]; C32, 72 h): 40.7 ± 2.9 µM
IC50 [6, 20]: > 200 µM
IC50 [6, 21]: 29.6 ± 2 µM
IC50 [6, 22]: 23 ± 2.1 µM

SMILES: N.N.[Cl][Pt][Cl] [cPt, cisplatin, reference compound]
IC50 ([7]; C32, 24 h): 6.8 ± 0.4 µM
IC50 ([7]; C32, 48 h): 5.7 ± 0.3 µM
IC50 ([7]; C32, 72 h): 4.4 ± 0.4 µM
IC50 ([3]; A375, 72 h): 9.9 ± 1.1 µM
IC50 ([8]; 24 h): 7.1 ± 0.9 µM
IC50 ([8]; 48 h): 6.1 ± 0.5 µM
IC50 ([8]; 72 h): 6.1 ± 0.8 µM
IC50 [9]: 47.5 ± 4.9 µM
cleaved PARP and caspase-9 [10]: generated cleaved PARP and caspase-9
phosphorylation of RSK [10]: inhibited
IC50 ([11]; A375, 24 h): 3.8 ± 0.2 µM
IC50 ([11]; A375, 48 h): 3.9 ± 0.5 µM
IC50 ([11]; A375, 72 h): 3.4 ± 0.3 µM
cleavage of initiator caspases, caspase-9 and caspase-8 [12]: cleavage of both initiator caspases
levels of the caspases-3 and -7 zymogens [12]: decreased levels
phosphorylation of the RSK protein [12]: impaired
IC50 ([6]; read-out: IC50, cytotoxic activity, NRU assay, C32, 72 h): 13.8 ± 1.5 µM

IC50 ([7]; C32, 48 h): 18.5 ± 0.7 µM
IC50 ([7]; Homo sapiens, C32, C32, 24 h): 25.4 ± 1.3 µM
IC50 ([7]; Homo sapiens, C32, C32, 48 h): 18.5 ± 0.21 µM
IC50 ([7]; Homo sapiens, C32, C32, 72 h): 19.1 ± 0.3 µM
IC50 at 24 h [4]: > 200 µM
IC50 at 48 h [4]: 57.8 ± 4 µM
IC50 at 72 h [4]: 38.6 ± 3.7 µM
IC50 ([11]; A375, 48 h): 28 ± 0.8 µM
IC50 ([11]; Homo sapiens, A-375, A375, 24 h): 154 ± 10.8 µM
IC50 ([11]; Homo sapiens, A-375, A375, 48 h): 28.1 ± 0.87 µM
IC50 ([11]; Homo sapiens, A-375, A375, 72 h): 24.2 ± 1.5 µM
SMILES: O=c1c(-c2ccc(O)cc2)coc2cc(O)cc(O)c12 [Compound 37, genistein]
IC50 ([1]; A-375, 24 h, read-out: IC50, cytotoxic activity, MTT test): 93.1 ± 5.8 µM
IC50 ([1]; A-375, 48 h, read-out: IC50, cytotoxic activity, MTT test): 60.9 ± 4.2 µM
IC50 at 24 h [13]: > 200 µM
IC50 at 48 h [13]: 100 to 200 µM
IC50 at 72 h [13]: 56.8 ± 4.1 µM
IC50 ([3]; Homo sapiens, A-375, 24 h): 49.2 ± 3.2 µM
IC50 ([3]; Homo sapiens, A-375, 48 h): 32.3 ± 3.5 µM
IC50 ([3]; Homo sapiens, A-375, 72 h): 19.3 ± 2.2 µM
IC50 ([8]; Homo sapiens, Skin fibroblast, 24 h): > 200 µM
IC50 ([8]; Homo sapiens, Skin fibroblast, 48 h): > 200 µM
IC50 ([8]; Homo sapiens, Skin fibroblast, 72 h): > 200 µM
cleaved PARP and caspase-9 [10]: generated cleaved PARP and caspase-9
phosphorylation of RSK [10]: inhibited
IC50 ([5]; C32, 24 h): > 200 µM
IC50 ([5]; C32, 48 h): > 200 µM
IC50 ([5]; C32, 72 h): 51.1 ± 3.5 µM
level of early apoptotic cells [14]: 38.1 ± 4.2%
level of late apoptotic cells [14]: 8.9 ± 1.9%
cleavage of initiator caspases, caspase-9 and caspase-8 [12]: cleavage of both initiator caspases
levels of the caspases-3 and -7 zymogens [12]: decreased levels
phosphorylation of the RSK protein [12]: impaired
IC50 ([6]; Homo sapiens, C32, 24 h, read-out: IC50, cytotoxic activity, NRU assay): 100 to 200 µM
IC50 ([6]; Homo sapiens, C32, 48 h, read-out: IC50, cytotoxic activity, NRU assay): 31.5 ± 2.8 µM
IC50 ([6]; Homo sapiens, C32, 72 h, read-out: IC50, cytotoxic activity, NRU assay): 14.4 ± 2.1 µM
caspase-3 expression [15]: notably extended

Reference: paper PMC10854695, “Using Flavonoid Substitution Status to Predict Anticancer Effects in Human Melanoma Cancers: An In Vitro Study” (Cancers, 2024)
